The values below come from US5395610A, “Agents for potentiating the effects of antitumor agents and combating multiple drug resistance” (Burroughs-Wellcome Co., priority 1989, dated 1995).

*1 amine or outer side, *2 acyl side, *3 side chain or, on linkers, in order; H or OH if unused. Where a SMILES comes first, the peptide text is derived from it. Bridges are numbered along the chain shown (N, C = ends). Roman numbers before positions name the chains, in order. [ ]: non-standard residue; d: D form. Actinocin(9to1) = Cc1c2oc3c(C)ccc(C(=O)[*:1])c3nc-2c(C(=O)[*:2])c(N)c1=O; NMeV = CN[C@H](C(=O)O)C(C)C; Sar = CNCC(=O)O

The subject of data set [1] is resistant sublines of murine leukemia cells. As to conditions: cited from earlier work.
Data set [2] concerns Chinese hamster ovary (CHO) cells, wildtype AuxB1. Nature of the data set: cells. In kind it is cell-based. The following applies: Cricetulus griseus, AuxB1, read-out: reduction in cell number below the value of completely untreated cultures.
A short description of data set [3]: In vitro cytotoxicity / potentiation of Actinomycin D in human KB epidermoid carcinoma cells, wildtype KB 3-1 (MTT). In kind it is cell-based. The following applies: human, kb 3-1 cells, fraction of untreated cultures, read-out: Cytotoxicity, normalized absorbance, Wildtype KB 3-1, 0 (no Act D); for viability at 96 h, 1 µM: 1 μM potentiating agent alone; for viability at 96 h, 10 µM: 10 μM potentiating agent alone.

In data set [4] the test system is human KB epidermoid carcinoma cells, wildtype KB 3-1. The description is as above. The following applies: 96 h, fraction of Act D alone. In kind it is cell-based.
Data set [5] is described as follows: In vitro cytotoxicity / potentiation of Actinomycin D in Chinese hamster ovary cells, drug resistant C5S32 (MTT). In kind it is cell-based. The following applies: hamster, cho c5s32 cells, fraction of untreated cultures (1.00), read-out: Cytotoxicity, normalized absorbance, Drug Resistant C5S32, 0 (no Act D); for viability at 96 h, 1 µM: 1 μM potentiating agent alone; for viability at 96 h, 10 µM: 10 μM potentiating agent alone.

Data set [6] deals with Chinese hamster ovary (CHO) cells, drug resistant C5S32. Described as above. In kind it is cell-based. The following applies: 96 h, fraction of Act D alone (1.00).
Data set [7] is described as follows: in vitro. The following applies: hamster, cho auxb1 cells. In kind it is cell-based, Chinese hamster.
Data set [8] can be described thus: In vitro cytotoxicity / potentiation of Actinomycin D in human KB epidermoid carcinoma cells, drug resistant KB V-1 (MTT). In kind it is cell-based. As to conditions: human, kb v-1 cells, fraction of untreated cultures, read-out: Cytotoxicity, normalized absorbance, Drug Resistant KB V-1, 0 (no Act D); for viability at 96 h, 1 µM: 1 μM potentiating agent alone; for viability at 96 h, 10 µM: 10 μM potentiating agent alone.

In data set [9] the test system is human KB epidermoid carcinoma cells, drug resistant KB V-1. The data set is described as above. In kind it is cell-based. As to conditions: 96 h, fraction of Act D alone.
The mark [10] stands for this setting: 1 μM potentiating agent + Act D 0.1 nM.
The mark [11] stands for this setting: 10 μM potentiating agent + Act D 0.1 nM.
[12] abbreviates: 1 μM potentiating agent + Act D 0.5 μM.
The mark [13] stands for this setting: 10 μM potentiating agent + Act D 0.5 μM.
Where [14] appears, read: 1 μM potentiating agent + Act D 20 nM.
Setting [15] is: 10 μM potentiating agent + Act D 20 nM.

Regarding `C=C[C@H]1C[N@@]2CC[C@H]1C[C@@H]2[C@@H](O)c1ccnc2ccc(OC)cc12` [quinidine], the “enhancement of the activity of antitumor agents against resistant sublines of murine leukemia cells” value (from here on “enhancement”) in [1] is “enhance the activity of antitumor agents”.

Consider `Cc1c2oc3c(C)ccc(C(=O)N[C@@H]4C(=O)N[C@H](C(C)C)C(=O)N5CCC[C@H]5C(=O)N(C)CC(=O)N(C)[C@@H](C(C)C)C(=O)O[C@@H]4C)c3nc-2c(C(=O)N[C@@H]2C(=O)N[C@H](C(C)C)C(=O)N3CCC[C@H]3C(=O)N(C)CC(=O)N(C)[C@@H](C(C)C)C(=O)O[C@@H]2C)c(N)c1=O` [Actinomycin D, reference compound] (I: T[dV]P[Sar][NMeV] / II: T[dV]P[Sar][NMeV]; ester I:1-I:C, II:1-II:C; linker I:N-II:N via Actinocin(9to1)), for which, in data set [2], the inhibition at 0.01 µM lay in the range of 10 to 20%.

As to `COc1ccc([C@@H]2Sc3ccccc3N(CCN(C)C)C(=O)[C@@H]2OC(C)=O)cc1` [diltiazem], the “enhancement” value in data set [1] was “enhance the activity of antitumor agents”.

With `COc1ccc(CCN(C)CCCC(C#N)(c2ccc(OC)c(OC)c2)C(C)C)cc1OC` (centres unmarked) [Verapamil], the “enhancement” value in [1] is recorded as “enhance the activity of antitumor agents”.

In the case of `COC(=O)C1=C(C)NC(C)=C(C(=O)OCCN(C)Cc2ccccc2)C1c1cccc([N+](=O)[O-])c1` (centres unmarked) [nicardipine], the “enhancement” value in data set [1] is reported as “enhance the activity of antitumor agents”.

`CN1CCN(CCCN2c3ccccc3Sc3ccc(C(F)(F)F)cc32)CC1` [trifluoperazine]: the “enhancement” value in data set [1] is listed as “enhance the activity of antitumor agents”.

As to `CN(C)CCCN1c2ccccc2CCc2ccc(Cl)cc21` [clomipramine], the “enhancement” value in data set [1] was “enhance the activity of antitumor agents”.

For `CCN(CC)CCn1c(=O)c(Cc2ccc(OC)cc2)nc2ccccc21` [caroverine], the “enhancement” value in data set [1] is recorded as “enhance the activity of antitumor agents”.

For `CCN(CC)CC/C=C1/c2ccccc2COc2ccc(Br)cc21` [(I), (Z)-3-(2-Bromo-6,11-dihydrodibenz [b,e]oxepin-11-ylidene)-N,N-diethylpropylamine], the viability at 96 h, 1 µM in data set [3] turned out to be 99%; in [5], 95%; in [7], 90%; in data set [8], 98%. For the same molecule, the viability at 96 h, 10 µM stood at 30% in data set [3], 100% in [5], 92% in [7] and 34% in data set [8]. The “Synergism with Actinomycin D, normalized absorbance, Wildtype KB 3-1, +ACT D” value was 0.99 in data set [4] (setting [10]) and 0.40 in [4] (setting [11]). Further, the results for the “Synergism with Actinomycin D, normalized absorbance, Drug Resistant C5S32, +ACT D” value in data set [6] (setting [12]) and in [6] (setting [13]) were 0.77 and 0.36, respectively. In addition, the “Synergism with Actinomycin D, normalized absorbance, Drug Resistant KB V-1, +ACT D” value was found to be 0.95 in [9] (setting [14]) and 0.04 in data set [9] (setting [15]).

Turning to `CN(C)CC/C=C1/c2cc(Br)ccc2COc2ccccc21` [(C), (Z)-3-(9-Bromo-6,11-dihydrodibenz [b,e]oxepin-11-ylidene)-N,N-dimethylpropylamine], the viability at 96 h, 1 µM in [3], in data set [5], in data set [7] and in data set [8] was 100% throughout. Also, the viability at 96 h, 10 µM was 100% in data set [3], 100% in [5], 92% in [7] and 34% in data set [8]. The “Synergism with Actinomycin D, normalized absorbance, Wildtype KB 3-1, +ACT D” value in [4] (setting [10]) is reported as 0.78; in [4] (setting [11]), 0.75. Also, the “Synergism with Actinomycin D, normalized absorbance, Drug Resistant C5S32, +ACT D” value in data set [6] (setting [12]) stood at 0.90; in data set [6] (setting [13]), 0.54. In addition, the results for the “Synergism with Actinomycin D, normalized absorbance, Drug Resistant KB V-1, +ACT D” value in data set [9] (setting [14]) and in data set [9] (setting [15]) were 0.97 and 0.36, respectively.

As for `Brc1ccc2c(c1)/C(=C/CCN1CCCC1)c1cc(Br)ccc1OC2` [(O), (Z)-1-[3-(2,9-dibromo-6,11-dihydrodibenz [b,e]-oxepin-11-ylidene)propyl]pyrrolidine], the viability at 96 h, 1 µM in data set [3] came out at 79%; in [5] it was 48%; in [7], 100%; in [8], 74%. Further, the viability at 96 h, 10 µM stood at 64% in [3], 35% in data set [5], 93% in [7] and 7% in data set [8]. Besides, the “Synergism with Actinomycin D, normalized absorbance, Wildtype KB 3-1, +ACT D” value in data set [4] (setting [10]) is 0.81; in [4] (setting [11]), 0.73. Moreover, the “Synergism with Actinomycin D, normalized absorbance, Drug Resistant C5S32, +ACT D” value in [6] (setting [12]) was 0.58; in data set [6] (setting [13]) it was 0.38. Also, the “Synergism with Actinomycin D, normalized absorbance, Drug Resistant KB V-1, +ACT D” value was found to be 0.78 in data set [9] (setting [14]) and 0.06 in data set [9] (setting [15]).

As to `CN(C)CCC=C1c2ccc(Br)cc2COc2ccccc21` [(L), (E)/(Z) -3-(8-Bromo-6,11-dihydrodibenz [b,e]-oxepine-11-ylidene)-N,N-dimethylpropylamine (80% Z:20% E)], the viability at 96 h, 1 µM in [3] was found to be 100%; in [5], 92%; in data set [7], 83%; in data set [8], 98%. Further, the viability at 96 h, 10 µM stood at 97% in data set [3], 99% in [5], 81% in [7] and 51% in [8]. For the same molecule, the “Synergism with Actinomycin D, normalized absorbance, Wildtype KB 3-1, +ACT D” value in data set [4] (setting [11]) was determined as 0.94. In addition, the “Synergism with Actinomycin D, normalized absorbance, Drug Resistant C5S32, +ACT D” value was determined as 0.85 in data set [6] (setting [12]) and 0.42 in [6] (setting [13]). Besides, the “Synergism with Actinomycin D, normalized absorbance, Drug Resistant KB V-1, +ACT D” value in data set [9] (setting [14]) is recorded as 1.00; in data set [9] (setting [15]) it was 0.23.

As for `Brc1ccc2c(c1)/C(=C\CCN1CCCC1)c1cc(Br)ccc1OC2` [(R), (E)-1-[3-(2,9-dibromo-6,11-dihydrodibenz [b,e]-oxepin-11-ylidene)propyl]pyrrolidine], the viability at 96 h, 1 µM in [3] stood at 78%; in data set [5], 50%; in data set [7], 99%; in data set [8], 87%. Also, the viability at 96 h, 10 µM is 36% in [3], 11% in data set [5], 95% in data set [7] and 6% in data set [8]. The “Synergism with Actinomycin D, normalized absorbance, Wildtype KB 3-1, +ACT D” value amounted to 0.84 in [4] (setting [10]) and 0.34 in data set [4] (setting [11]). Also, the “Synergism with Actinomycin D, normalized absorbance, Drug Resistant C5S32, +ACT D” value in data set [6] (setting [12]) amounted to 0.52; in data set [6] (setting [13]), 0.11. Further, the “Synergism with Actinomycin D, normalized absorbance, Drug Resistant KB V-1, +ACT D” value worked out at 0.90 in data set [9] (setting [14]) and 0.02 in data set [9] (setting [15]).
